We go through three compounds from patent publication US9314444B2, “Composition and method for treatment of NASH” (BioKier Inc., priority 2009, dated 2016).

The subject of one data set is GLP-1 and PYY. Description: Direct colonic delivery, secretion of gut hormones from the colon. Format: in vivo. The following applies: upper gut bypassed.
A further data set concerns L-cells in the colon. The settings on record: dosed orally and unformulated; cited from earlier work.
The subject of data set [1] is cell lines derived from L-cells. The settings on record: cited from earlier work.
For another data set, the system named is GLP-1. Description: Colon delivered L-glutamine, GLP-1 secretion in human diabetic subjects. The data set is classed as in vivo.
Another data set deals with rat liver. The following applies: butyrate formed from carbohydrates via fermentation in the rat colon; cited from earlier work.

Regarding `CCC(=O)O` [propionic acid], in the data set with GLP-1 and PYY, the “secretion of GLP-1 from the colon” value was “increase” and the “secretion of PYY from the colon” value is “increase”. Besides, in the data set on L-cells in the colon, the minimum effective amount was 30 grams. Besides, the “secretion of gut hormones” value in data set [1] is reported as “induce secretion”.

Take `NC(=O)CC[C@H](N)C(=O)O` [L-glutamine]: the “secretion of GLP-1” value in the data set with GLP-1 is recorded as “increased”. In addition, in the data set with GLP-1 and PYY, the “secretion of GLP-1 from the colon” value is “increase” and the “secretion of PYY from the colon” value is “increase”. In the data set on L-cells in the colon, the minimum effective amount was 30 grams and the toxic dose is not below 30 grams. The “secretion of gut hormones” value in data set [1] is reported as “induce secretion”.

For `CCCC(=O)O` [butyric acid], in the data set with GLP-1 and PYY, the “secretion of GLP-1 from the colon” value is on record as “increase” and the “secretion of PYY from the colon” value is given as “increase”. Further, the “fat in the rat liver” value in the data set on rat liver was “reduces”. Further, the minimum effective amount in the data set on L-cells in the colon is given as 30 grams. In addition, the “secretion of gut hormones” value in data set [1] is reported as “induce secretion”.
